Here are results for 6 compounds from patent US20050002879A1, “External skin compositions” (priority 2001, published 2005).

Holding throughout (type): cell-based
Test [1] relates to Human keratinocytes. Nature of the test: Test Example 2: hyaluronic acid production test in human keratinocytes (retinoids with or without NAG). To be noted: RA 1 mmol/L, ROH 1 mmol/L, RPal 0.001%, RAce 0.001%, NAG 5 mmol/L; for amount of hyaluronic acid released into the medium: n=3, 24 hours. The method, then:
(§1) Human keratinocytes (manufactured by Kurabo Industries, Ltd.) were seeded in a 24-well plate, cultured to confluence in a growth medium, and then 5 mmol/L of N-acetylglucosamine, 0.0001% of retinyl palmitate, 0.0001% of retinyl palmitate+5 mmol/L of N-acetylglucosamine, 1.0 mmol/L of retinoic acid, or 1.0 mmol/L of retinoic acid+5 mmol/L of N-acetylglucosamine were added, respectively. 24 hours after the addition, hyaluronic acid released into the medium was determined. The determination of hyaluronic acid was conducted using a commercially available hyaluronic acid determination kit (manufactured by Chugai Diagnostics Science).
Hyaluronic Acid Production Test to Human Keratinocytes
In the same manner as in Test Example 1, the test was conducted (n=3). As the test substance, 1 mmol/L of retinoic acid (hereinafter referred to as RA), 1 mmol/L of retinol (hereinafter referred to as ROH), 0.001% of retinyl palmitate (hereinafter referred to as RPal) and 0.001% of retinyl acetate (hereinafter referred to as RAce) were used, and the determination was conducted with respect to the case where 5 mmol/L of N-acetylglucosamine (hereinafter referred to as NAG) and each of the above test substances were simultaneously added. The results are shown below and in FIG. 1.

Test [2] concerns Human keratinocytes. Put plainly: Test Example 1: hyaluronic acid production test in human normal keratinocytes. To be noted: N-acetylglucosamine 5 mmol/L, retinyl palmitate 0.0001%, retinoic acid 1.0 mmol/L; for production of hyaluronic acid increased, times as compared with the no-addition group: 24 hours; for Hyaluronic acid production promotion ratio (% ± S.D.): % of hyaluronic acid in medium without test substance, 24 hours after addition. How it is done:
Hyaluronic Acid Production Test to Human Normal Keratinocytes)
as §1
The effects of test substances were defined as percentage (%) of the amount of hyaluronic acid in a cultured medium without a test substance.

In test [3] the test system is Human keratinocytes. Put plainly: Test Example 3: hyaluronic acid production promotion test in human keratinocytes (â-carotene with or without NAG). As to conditions: â-carotene 10 mmol/L; for amount of hyaluronic acid: n=3, 24 hours. How it is done: as §1
Hyaluronic Acid Production Promotion Test to Human Keratinocytes)
In the same manner as in Test Example 1, the test was conducted and the amount of hyaluronic acid was determined (n=3). As the test substance, 10 mmol/L of â-carotene (hereinafter referred to as âCAR), NAG, and NAG+âCAR were used. The results are shown below and in FIG. 2.

In the case of `CC(=O)OC/C=C(C)/C=C/C=C(C)/C=C/C1=C(C)CCCC1(C)C` [retinyl acetate], in the test with Human keratinocytes [1], the “production of hyaluronic acid increased, times as compared with the no-addition group” value is reported as 1.6 times and the “amount of hyaluronic acid released into the medium” value came to 0.18 ig/well.
In the case of `CCCCCCCCCCCCCCCC(=O)OC/C=C(C)/C=C/C=C(C)/C=C/C1=C(C)CCCC1(C)C` [retinyl palmitate], in the test with Human keratinocytes [1], the “production of hyaluronic acid increased, times as compared with the no-addition group” value stood at 2.0 times and the “amount of hyaluronic acid released into the medium” value amounted to 0.22 ig/well. In the test with Human keratinocytes [2], the “production of hyaluronic acid increased, times as compared with the no-addition group” value is reported as 1.23 times and the “Hyaluronic acid production promotion ratio (% ± S.D.)” value was determined as 123 ± 16.4%.
Regarding `CC1=C(/C=C/C(C)=C/C=C/C(C)=C/CO)C(C)(C)CCC1` [retinol], in the test with Human keratinocytes [1], the “production of hyaluronic acid increased, times as compared with the no-addition group” value stood at 1.4 times and the “amount of hyaluronic acid released into the medium” value stood at 0.15 ig/well.
Consider `CC1=C(/C=C/C(C)=C/C=C/C(C)=C/C(=O)O)C(C)(C)CCC1` [retinoic acid, reference compound], for which, in the test on Human keratinocytes [1], the “production of hyaluronic acid increased, times as compared with the no-addition group” value turned out to be 3.4 times and the “amount of hyaluronic acid released into the medium” value came out at 0.37 ig/well. For the same compound, in the test with Human keratinocytes [2], the “production of hyaluronic acid increased, times as compared with the no-addition group” value turned out to be 2.5 times and the “Hyaluronic acid production promotion ratio (% ± S.D.)” value turned out to be 250 ± 20.8%.
With `CC1=CCCC(C)(C)C1/C=C/C(C)=C/C=C/C(C)=C/C=C/C=C(C)/C=C/C=C(C)/C=C/C1=C(C)CCCC1(C)C` (centres unmarked) [â-carotene], in the test with Human keratinocytes [3], the “amount of hyaluronic acid” value stood at 0.16 ig/well and the “production of hyaluronic acid increased, times as compared with the no-addition group” value came out at 1.1 times.
As to `CC(=O)N[C@H]1C(O)O[C@H](CO)[C@@H](O)[C@@H]1O` (some centres unmarked) [N-acetylglucosamine], in the test on Human keratinocytes [3], the “amount of hyaluronic acid” value was 0.18 ig/well and the “production of hyaluronic acid increased, times as compared with the no-addition group” value was 1.3 times. Also, in the test with Human keratinocytes [1], the “production of hyaluronic acid increased, times as compared with the no-addition group” value came out at 1.1 times and the “amount of hyaluronic acid released into the medium” value stood at 0.12 ig/well. Further, in the test on Human keratinocytes [2], the “production of hyaluronic acid increased, times as compared with the no-addition group” value was 1.55 times and the “Hyaluronic acid production promotion ratio (% ± S.D.)” value is on record as 155 ± 11.8%.
